Patent publication US20090203636A1, “Prevention and Treatment of Cancer and Other Diseases” (priority 2006, published 2009)
≈ marks a conversion by molar mass, not a printed value. Where a name gives a salt, the structure may show the parent alone.

Legend:
HeLa cells [1] = assay: Telomere length (flow cytometry, PNA probe), cell cycle distribution (PI) and apoptosis in HeLa cells; type: cell-based, human
Description: (§1) The ALT cell lines were treated with therapeutic concentrations of AZT, to determine if slippage telomeric DNA synthesis could be inhibited by AZT-TP, and thereby induce telomere shortening. Telomere length in AZT treated and untreated cell lines was measured by flow cytometry with a telomere specific peptide nucleic acid (PNA) probe. To determine cell cycle distribution, cells were stained with propidium iodide (PI).
(§2) The origin of the cell lines are uterine cervix (HeLa) and epithelial ovarian (NuTu-19). Cells were cultured in D-MEM media supplemented with 10% fetal calf serum at 37° C. in a humidified atmosphere of 5% CO2. For treatment of the cells with GCV, the media was supplemented with 1.5 μM of GCV (Cymevene, Hoffman-La Roche). For treatment of the cells with ACV, the media was supplemented with 3 μM of Acyclovir (Acyclovir, TEVA Pharm. Ind. Id. Israel).
(§3) Real time TRAP assay was performed as described (Wege et al., SYBR Green real-time telomeric repeat amplification protocol for the rapid quantification of telomerase activity. Nucleic Acids Res. 2003; 31(2):E3-3). For telomere length measurement by flow cytometry, cells were stained with telomere specific FITC conjugated (C3TA2)3 PNA (Applied Biosystems) probe and contrastained with 0.06 μg/ml PI as described by Rufer, N., Dragowska, W., Thornbury G., Roosnek, E., Lansdorp P. M. Telomere length dynamics in human lymphocyte subpopulations […]. Nat. Biotechnol. 16, 743-747 (1998)).
(§4) Both telomerase positive (Hela) telomerase negative (U-2 OS) cell lines were used. Appropriate assays were performed to detect and confirm telomerase/L1RT specific activity in these cells.
(§5) The U-2 OS (osteosarcoma) and HeLa (uterine cervix) cell lines used in this study were obtained from American Type Culture Collection (Rockville, Md.). Cells were cultured in D-MEM media supplemented with 10% fetal calf serum at 37° C. in a humidified atmosphere of 5% CO2. For treatment of the cells with ACV, the media was supplemented with 3 μM of acyclovir (acyclovir, TEVA Pharm. Ind. Ltd, Israel). For treatment of the cells with GCV, the media was supplemented with 1.5 μM of GCV (Cymevene, Hoffman-La Roche). For treatment of the cells with PCV, the media was supplemented with 1.5 μM of PCV (penciclovir, Merck & Co.).
(§6) Telomere length in SN 1 or SN 2 treated and untreated cell lines was measured by flow cytometry with a telomere—specific peptide nucleic acid PNA) probe. To determine cell cycle distribution, cells were stained with propidium iodide (PI).
(§7) The U-2 OS (osteosarcoma) and Hela (uterine cervix) cell lines used in this study were obtained from American Type Culture Collection (Rockville, Md.). Cells were cultured in D-MEM media supplemented with 10% fetal calf serum at 37° C. in a humidified atmosphere of 5% CO2. For treatment of the cells with SN 1 or SN 2, the media was supplemented with 1.5 μM of SN1 or SN2.
(§8) For telomere length measurement by flow cytometry, cells were stained with telomere specific FITC conjugated (C3TA2)3 PNA (Applied Biosystems) probe and contra-stained with 0.06 μg/ml PI as described by Rufer, N., Dragowska, W., Thornbury G., Roosnek, E., Lansdorp P. M. Telomere length dynamics in human lymphocyte subpopulations […]. Nat. Biotechnol. 16, 743-747 (1998)).

NuTu-19 cells = assay: Telomere length (flow cytometry, PNA probe), cell cycle distribution (PI) and apoptosis in NuTu-19 cells; type: cell-based; details: GCV 1.5 μM or ACV 3.0 μM, 14 days (Example 2b)
Description: as §2, §3

U-2 OS cells [2] = assay: Telomere length (flow cytometry, PNA probe), cell cycle distribution (PI), apoptosis and TRAP status in U-2 OS cells; type: cell-based, human
Description: as §1
Rate of DNA synthesis was determined by incorporation of 5-bromodeoxyuridine (BdU). […] It is important to note that changes in cell cycle distribution, DNA synthesis and telomere length were rapid and could be detected after only 10 days of AZT treatment.
Telomere length in untreated and GCV treated cells was measured by flow cytometry with a telomere-specific PNA probe as described above.
To determine cell cycle distribution, cells were stained with propidium iodide (PI).
as §4, §5, §3
(a) In vitro arrays: U-2 OS cells were incubated with 0.2 μM of AZT for 22 days. Actively growing clones were analyzed by flow-FISH with telomere specific PNA probe, and in real time TRAP assay using HeLa cells as positive control. Isolated actively growing clones were different from parental cells in DNA content and telomere length.
as §6, §7, §8

U-2 OS cells [3] = details: therapeutic concentrations, 14 days; reported in WO 2005/069880; cited from earlier work
[4] = system: Saos-2 osteosarcoma cells; details: therapeutic concentrations, 14 days; reported in WO 2005/069880; cited from earlier work
[5] = MTT-microtiter plate tetrazolium cytotoxicity assay; type: cell-based; details: dog, MDCK (ATCC) cells; continuous exposure for 2 days; read-out: IC50 cytotoxic doses
Description: (a) Cytotoxcity Assay: The cytotoxic effects of compounds of the invention was determined using pharmacological models that are well known to the art, i.e., MTT-microtiter plate tetrazolium cytotoxicity Assay. Specifically, cytotoxicity assays were performed using the MIT assay procedure described in Mosmann, 1983, Rapid calorimetric assay for cellular growth and survival: application to proliferation and cytotoxicity assays, J Immunol Methods, 65:55-63. Briefly, the assay was performed by using 96-well microtiter plates plated at 10^4 MDCK (ATCC) cells/well, in […] of growth medium.
For determination of IC50 cells were exposed continuously for 2 days to varying concentrations of SN1, SN2, SN3, SN4 and valine ester of SN1. MIT assays were performed at the end of the 2nd day. […] All assays were performed at least 2 times in 3 replicate wells.

HeLa cells [6] = type: in vivo; details: Valcyte in drinking water (1 mg/ml) from day 0
Description: For in vivo assay, appropriate host, e.g., nude (nu/nu) mice of about 5-7 weeks old are obtained and maintained in pathogen-free conditions. Approximately, 1×10^6 HeLa cells (and/or U-2 OS cells) contained in 200 μl of serum-free media are delivered to all animals, briefly anaesthetize with Metofane, by subcutaneous (s.c.) injection in flank. Then the mice are divided into experimental group and control group. Appropriate concentrations of compounds of the formulas (I) to (VI), ACV, PCV and/or GCV are used for tumor growth progression or regression assays.
In one embodiment, impairment of s.c. tumor growth or time to progression rather than decrease in size of an established tumor (regression) is assessed. In this embodiment, starting from the day zero, mice in the experimental group receive GCV in drinking water ad libitum. Concentration of GCV in water can be 2 mg/ml. Fresh solution of GCV is supplied every 3 days. Mice in the control group receive only drinking water. Tumors are measured every 2-3 days. Mice are sacrificed when tumors exceed 1 cm^3. Tumor volume is calculated with formula 4/3πr^3, where r is the radius of the tumor.
Experimental group received valganciclovir in drinking water from day 0. Human cancer HeLa cell culture was purchased from ATCC. In all, 12 CD1/-nu and 12 NMRiI/-nu nude mice were purchased from Charles River Laboratories, Charles River Deutschland GmbH. These nude mice were injected s.c. with 3×10^5 Hela cells. Mice in the experimental groups (6 mice per strain) were exposed to Valcyte® (val-ganciclovir) in drinking water (1 mg/ml) from day 0.
(a) In vivo assays using Valganciclovir and zidovudine (AZT) combination: Human cancer HeLa cell culture was purchased from ATCC. A total of 24 CD1/-nu nude mice were purchased from Charles River laboratories, Charles River Deutschland GmbH. These mice were injected s.c. with 1×10^5 HeLa cells. The tumor volumes were determined by measurement of maximal and minimal diameters of the tumor. The calculations were conducted using the formula V=4/3 πRmax×Rmin^2, where Rmax−½ of maximal diameter of the tumor, and Rmin−½ of minimal diameter of the tumor. nude mice were injected s.c. with 1×10^5 Hela cells.
Of the 12 treated mice, after 20 days of double cocktail treatment, six mice were administered with a triple cocktail (Valcyte®+Retrovir®+ddI at the dose of 1 mg/ml each in drinking water for a further period 21 days (see Example 7 below) and only six mice continued to receive the double cocktail for another 21 days at which time tumor measurements were taken for all mice injected with HeLa cells. Of the remaining 12 mice injected with HeLa cells but untreated with any cocktail or anticancer agent thus far, six were maintained as controls for the rest of the duration of the experiment. The other six were treated with Xeloda® 67 days after the injection of HeLa cells (see Example 7 below).
As mentioned in Example 5 above, a total of six mice, after 20 days of double cocktail treatment, were administered with a triple cocktail (Valcyte®+Retrovir®+ddI at the dose of 1 mg/ml each in drinking water) for a further period 21 days. After 14 days of triple cocktail treatment, Xeloda® at a concentration 1 mg/ml was added to the triple cocktail. Six mice previously untreated with any drug for 67 days after the injection of HeLa cells were treated with Xeloda® at a concentration 1 mg/ml in drinking water. Tumor measurements were taken in all mice 75 days following the injection of HeLa cells.

[7] = ACV 3.0, GCV 1.5 μM or PCV 1.5 μM, 10 and 14 days (Example 2c)
[8] = GCV 1.5 μM or ACV 3.0 μM, 14 days (Example 2b)

Nc1nc2c(ncn2COCCO)c(=O)[nH]1 [ACV, 9-[2(hydromethoxy)-methyl]guanine]
telomere length, apoptosis and cell cycle distribution (HeLa cells [1]; [7]): telomere shortening, massive apoptosis and G2 arrest | telomere length, apoptosis and cell cycle distribution (HeLa cells [1]; [8]): telomere shortening, massive apoptosis and G2 arrest | telomere length, apoptosis and cell cycle distribution (NuTu-19 cells): telomere shortening, massive apoptosis and G2 arrest | telomere length, apoptosis and cell cycle distribution (U-2 OS cells [2]; [7]): telomere shortening, massive apoptosis and G2 arrest

Nc1nc(O)c2ncn(COC(CO)CO)c2n1 [GCV]
telomere length, apoptosis and cell cycle distribution (HeLa cells [1]; [7]): telomere shortening, massive apoptosis and G2 arrest | telomere length, apoptosis and cell cycle distribution (HeLa cells [1]; [8]): telomere shortening, massive apoptosis and G2 arrest | telomere length, cell cycle and apoptosis (U-2 OS cells [3]): telomere shortening, G2 arrest and massive apoptosis | telomere length, apoptosis and cell cycle distribution (NuTu-19 cells): telomere shortening, massive apoptosis and G2 arrest | telomere length, apoptosis and cell cycle distribution (U-2 OS cells [2]; [7]): telomere shortening, massive apoptosis and G2 arrest | telomere length, apoptosis and cell cycle distribution (U-2 OS cells [2]; GCV 0.3 μg/ml, 14 days): telomere shortening, massive apoptosis programmed cell death) and G2 arrest | telomere length, cell cycle and apoptosis [4]: telomere shortening, G2 arrest and massive apoptosis

Nc1nc2c(ncn2CCC(CO)CO)c(=O)[nH]1 [PCV]
telomere length, apoptosis and cell cycle distribution (HeLa cells [1]; [7]): telomere shortening, massive apoptosis and G2 arrest | telomere length, apoptosis and cell cycle distribution (U-2 OS cells [2]; [7]): telomere shortening, massive apoptosis and G2 arrest

Cc1cn(COCCO)c(=O)[nH]c1=O [SN1, 1-[(2-Hydroxyethoxy)methyl]-5-methyluracil]
telomere length, apoptosis and cell cycle distribution (HeLa cells [1]; SN 1 or SN 2 1.5 μM, 14 days): telomere shortening, massive apoptosis and G2 arrest | IC50 at 2 days [5]: 750 µg/mL (≈ 3.75 mM)

Nc1ncnc2c1ncn2COCCO [SN2, 9-[(2-Hydroxyethoxy)methyl]-adenine]
telomere length, apoptosis and cell cycle distribution (HeLa cells [1]; SN 1 or SN 2 1.5 μM, 14 days): telomere shortening, massive apoptosis and G2 arrest | IC50 at 2 days [5]: 750 µg/mL (≈ 3.58 mM)

Cc1cn(COC(CO)CO)c(=O)[nH]c1=O [SN3, 1-[(1,3-Dihydroxy-2-propoxy)methyl]-5-methyluracil]
melting point: 156 to 157 °C | IC50 at 2 days [5]: > 1000 µg/mL

Nc1ncnc2c1ncn2COC(CO)CO [SN4, 9-[(1,3-Dihydroxy-2-propoxy)methyl]-adenine]
IC50 at 2 days [5]: > 1000 µg/mL

Cc1cn(COCCOC(=O)[C@@H](N)C(C)C)c(=O)[nH]c1=O [VSN1, 2-[(5-Methyluracil-1-yl)methoxy]-ethyl L-valinate hydrochloride monohydrate]
IC50 at 2 days [5]: > 1000 µg/mL

CC(C)[C@H](N)C(=O)OCC(CO)OCn1cnc2c(=O)nc(N)[nH]c21 (stereo partly drawn) [Valcyte®]
tumor growth in the other treated mice (HeLa cells [6]): slowing of tumor growth | tumor development (HeLa cells [6]; about 14 days): All mice in control and treated groups had developed tumors | mice in which the tumor regressed and was eliminated by monotherapy (HeLa cells [6]; by about day 30): one
